Reference: ChEMBL document CHEMBL5316333, “Potent Long-Acting Inhibitors Targeting the HIV-1 Capsid Based on a Versatile Quinazolin-4-one Scaffold” (J Med Chem, 2023)
≈ marks a conversion by molar mass, not a printed value.

Tests used:
[1] = system: Human immunodeficiency virus 1; test: Antiviral activity against HIV-1 NLRep-Rluc infected in human MT2 cells assessed as inhibition of viral growth incubated for 96 hrs by renilla luciferase assay; assay type: functional, organism-based; settings: Human immunodeficiency virus 1, NLRep-Rluc, MT2, 96 h
[2] = Clearance in Sprague-Dawley rat at 1 mg/kg, iv and measured upto 96 hrs by LC-MS/MS analysis; assay type: ADME, organism-based; settings: in vivo
[3] = Solubility of the compound at pH 2 buffer; assay type: physicochemical
[4] = Solubility of the compound at pH 6.5 buffer; assay type: physicochemical
[5] = Solubility of the compound in FaSSGF at pH 1.6; assay type: physicochemical
[6] = Solubility of the compound in FaSSIF at pH 6.5; assay type: physicochemical
[7] = Solubility of compound in FeSSIF at pH 5; assay type: physicochemical
[8] = Plasma concentration in Wistar Han rat at 20 mg/kg, SC and measured at 21 days by LC-MS/MS analysis; assay type: ADME, organism-based; settings: time 21 day
[9] = Plasma concentration in Wistar Han rat at 20 mg/kg, IM and measured at 21 days by LC-MS/MS analysis; assay type: ADME, organism-based; settings: time 21 day
[10] = Plasma concentration in Beagle dog at 5 mg/kg, IM and measured after 10 days by LC-MS/MS analysis; assay type: ADME, organism-based, Canis lupus familiaris; settings: time 10 day
[11] = Plasma concentration in Beagle dog at 5 mg/kg, SC and measured after 10 days by LC-MS/MS analysis; assay type: ADME, organism-based, Canis lupus familiaris; settings: time 10 day
[12] = Half life in Wistar Han rat plasma at 1 mg/kg,iv and measured upto 96 hrs by LC-MS/MS analysis; assay type: ADME, organism-based
[13] = Half life in Wistar Han rat plasma at 20 mg/kg, SC and measured after 21 days by LC-MS/MS analysis; assay type: ADME, organism-based; settings: time 21 day
[14] = Half life in Wistar Han rat plasma at 20 mg/kg, IM and measured after 21 days by LC-MS/MS analysis; assay type: ADME, organism-based; settings: time 21 day
[15] = AUC (0 to 24) in male Beagle dog at 100 mg/kg, po QD and measured after 1 day by LC-MS/MS analysis; assay type: ADME, organism-based, Canis lupus familiaris; set-up: dose 100 mg/kg, time 1 day, route po; settings: in vivo
[16] = AUC (0 to 24) in female Beagle dog at 100 mg/kg, po QD and measured after 1 day by LC-MS/MS analysis; assay type: ADME, organism-based, Canis lupus familiaris; set-up: time 1 day, dose 100 mg/kg, route po; settings: in vivo
[17] = AUC (0 to 24) in male Beagle dog at 100 mg/kg, po QD and measured after 7 days by LC-MS/MS analysis; assay type: ADME, organism-based, Canis lupus familiaris; set-up: dose 100 mg/kg, time 7 day, route po; settings: in vivo
[18] = AUC (0 to 24) in female Beagle dog at 100 mg/kg, po QD and measured after 7 days by LC-MS/MS analysis; assay type: ADME, organism-based, Canis lupus familiaris; set-up: dose 100 mg/kg, time 7 day, route po; settings: in vivo
[19] = Cmax in male Beagle dog at 100 mg/kg, po QD and measured after 1 day by LC-MS/MS analysis; assay type: ADME, organism-based, Canis lupus familiaris; set-up: time 1 day, dose 100 mg/kg, route po; settings: in vivo
[20] = Cmax in female Beagle dog at 100 mg/kg, po QD and measured after 1 day by LC-MS/MS analysis; assay type: ADME, organism-based, Canis lupus familiaris; set-up: dose 100 mg/kg, time 1 day, route po; settings: in vivo
[21] = Cmax in male Beagle dog at 100 mg/kg, po QD and measured after 7 days by LC-MS/MS analysis; assay type: ADME, organism-based, Canis lupus familiaris; set-up: dose 100 mg/kg, time 7 day, route po; settings: in vivo
[22] = Cmax in female Beagle dog at 100 mg/kg, po QD and measured after 7 days by LC-MS/MS analysis; assay type: ADME, organism-based, Canis lupus familiaris; set-up: time 7 day, dose 100 mg/kg, route po; settings: in vivo
[23] = Toxicity in male Beagle dog assessed as fold increase in AST level […] at 100 mg/kg, po QD for 7 days relative to baseline pretreatment; assay type: organism-based, Canis lupus familiaris; settings: in vivo, 168 h, time 7 day
[24] = Toxicity in male Beagle dog assessed as fold increase in ALT level […] at 100 mg/kg, po QD for 7 days relative to baseline pretreatment; assay type: organism-based, Canis lupus familiaris; settings: in vivo, 168 h, time 7 day
[25] = Toxicity in male Beagle dog assessed as fold increase in ALP level […] at 100 mg/kg, po QD for 7 days relative to baseline pretreatment; assay type: organism-based, Canis lupus familiaris; settings: in vivo, 168 h, time 7 day
[26] = Toxicity in male Beagle dog assessed as fold increase in GLDH level […] at 100 mg/kg, po QD for 7 days relative to baseline pretreatment; assay type: organism-based, Canis lupus familiaris; settings: in vivo, 168 h, time 7 day
[27] = Toxicity in male Beagle dog assessed as fold increase in TBA level […] at 100 mg/kg, po QD for 7 days relative to baseline pretreatment; assay type: organism-based, Canis lupus familiaris; settings: in vivo, 168 h, time 7 day
[28] = Toxicity in female Beagle dog assessed as change in AST level at 100 mg/kg, po QD for 7 days relative to baseline pretreatment; assay type: organism-based, Canis lupus familiaris; settings: in vivo, 168 h, time 7 day
[29] = Toxicity in female Beagle dog assessed as change in ALT level at 100 mg/kg, po QD for 7 days relative to baseline pretreatment; assay type: organism-based, Canis lupus familiaris; settings: in vivo, 168 h, time 7 day
[30] = Toxicity in female Beagle dog assessed as change in ALP level at 100 mg/kg, po QD for 7 days relative to baseline pretreatment; assay type: organism-based, Canis lupus familiaris; settings: in vivo, 168 h, time 7 day
[31] = Toxicity in female Beagle dog assessed as change in GLDH level at 100 mg/kg, po QD for 7 days relative to baseline pretreatment; assay type: organism-based, Canis lupus familiaris; settings: in vivo, 168 h, time 7 day
[32] = Toxicity in female Beagle dog assessed as change in TBA level at 100 mg/kg, po QD for 7 days relative to baseline pretreatment; assay type: organism-based, Canis lupus familiaris; settings: in vivo, 168 h, time 7 day
[33] = Half life in Beagle dog plasma at 5 mg/kg,SC and measured after 21 days by LC-MS/MS analysis; assay type: ADME, organism-based, Canis lupus familiaris; settings: time 21 day
[34] = Half life in Beagle dog plasma at 5 mg/kg,IM and measured after 21 days by LC-MS/MS analysis; assay type: ADME, organism-based, Canis lupus familiaris; settings: time 21 day
[35] = Toxicity in male Beagle dog assessed as increase in mitotic figures in hepatocytes at 100 mg/kg, po QD for 7 days by microscopy; assay type: organism-based, Canis lupus familiaris; settings: in vivo, 168 h, time 7 day
[36] = Toxicity in male Beagle dog assessed as hyperplasia of Kupffer cells at 100 mg/kg, po QD for 7 days by microscopy; assay type: organism-based, Canis lupus familiaris; settings: in vivo, 168 h, time 7 day
[37] = Drug metabolism in Beagle dog plasma assessed as metabolite formation at 100 mg/kg, po for 7 days by LC-MS/MS analysis; assay type: ADME, organism-based, Canis lupus familiaris; settings: in vivo, 168 h, time 7 day

Work on `C[C@@H]1CN(c2ccc3c(=O)n(-c4ccc(Cl)c5c(NS(C)(=O)=O)nn(C)c45)c([C@H](Cc4cc(F)cc(F)c4)NC(=O)Cn4nc(C(F)F)c5c4C(F)(F)[C@@H]4C[C@H]54)nc3c2)C[C@H](C)O1` yielded an EC50 [1] of 0.039 nM, a clearance [2] of 8.9 mL/min/kg and a solubility [3] of less than 1 µg/mL. The solubility [4] was less than 1 µg/mL, the solubility [5] was less than 1 µg/mL and the solubility [6] was less than 1 µg/mL. The solubility [7] was 22 µg/mL (≈ 24 µM), the concentration at 504 h [8] was 10 ng/mL and the concentration at 504 h [9] was 10 ng/mL. The concentration at 240 h [10] was less than 2.2 ng/mL, the concentration at 240 h [11] was less than 2.2 ng/mL and the half-life [12] was 3.2 h. The half-life [13] was 39 h, the half-life [14] was 39 h and the AUC at 24 h [15] was 3710 ng·h/mL. For the same compound, the AUC at 24 h [16] was 1360 ng·h/mL, the AUC at 168 h [17] was 299000 ng·h/mL and the AUC at 168 h [18] was 6780 ng·h/mL. For the same compound, the Cmax [19] was 451 ng/mL, the Cmax [20] was 344 ng/mL and the Cmax [21] was 13600 ng/mL. For the same compound, the Cmax [22] was 1320 ng/mL, the “fold change (FC)” value [23] was 4.8 and the “fold change (FC)” value [24] was 87. The “fold change (FC)” value [25] was 4.9, the “fold change (FC)” value [26] was 94 and the “fold change (FC)” value [27] was 3. The Activity [28] was “Non-Toxic”, the Activity [29] was “Non-Toxic” and the Activity [30] was “Non-Toxic”. The Activity [31] was “Non-Toxic”, the Activity [32] was “Non-Toxic” and the half-life [33] was 39 h. For the same compound, the half-life [34] was 39 h, the Activity [35] was “Toxic” and the Activity [36] was “Toxic”. For the same compound, the Drug metabolism [37] was “Metabolite_Detected”.
